Test results published in the NIST ThermoML archive (doi:10.1021/je500433d).
Several values for one entry are separate records, joined by “and”; a condition that tells them apart may be missing. Equal values may be shown once.

Conditions: Liquid, Alternating current cell with electrodes

[Be+2].[Cl-].[Cl-] [beryllium chloride]
Conditions	electrical conductivity [S/m]
693.15 K	74.7
695.15 K	80.5
698.65 K	87.7
701.65 K	96.1
705.65 K	107
711.65 K	132
714.65 K	143
719.65 K	165
721.65 K	174
724.65 K	186
726.15 K	193
728.15 K	202
735.65 K	253
738.15 K	270
739.65 K	288
741.65 K	297
744.65 K	327
746.15 K	335
747.15 K	348
750.15 K	376
752.15 K	398
755.15 K	437
759.65 K	454
761.15 K	488
763.15 K	505
765.15 K	531
766.35 K	545
767.35 K	572
770.15 K	610
772.85 K	636
775.15 K	670
777.65 K	707
781.65 K	730
783.65 K	763
786.15 K	824
787.15 K	836
788.15 K	851
790.15 K	887
793.15 K	935
795.15 K	954
795.65 K	966
797.15 K	1010
801.65 K	1090
807.65 K	1160
809.65 K	1180
822.65 K	1390

[Cl][Pb][Cl] [lead(2+) dichloride]
Conditions	electrical conductivity [S/m]
783.15 K	150
800.15 K	159
824.15 K	170
854.15 K	185
883.15 K	197
913.15 K	210
943.15 K	221
972.15 K	233
1001.1 K	244
1030.2 K	254
1058.2 K	263
1090.2 K	272
1118.2 K	279
1149.2 K	286
1177.2 K	292
1210.2 K	298
1230.2 K	302
1254.2 K	309
1279.2 K	315
1297.2 K	318
1320.2 K	321

[Cl-].[Cl-].[Zn+2] [zinc chloride]
Conditions	electrical conductivity
558.15 K	0.0363 S/m
568.15 K	0.0568 S/m
578.15 K	0.0874 S/m
588.15 K	0.131 S/m
598.15 K	0.179 S/m
618.15 K	0.36 S/m
638.15 K	0.646 S/m
681.15 K	1.86 S/m
717.15 K	3.93 S/m
739.15 K	5.57 S/m
756.65 K	7.13 S/m
814.65 K	14.4 S/m
814.95 K	14.4 S/m
858.65 K	21.9 S/m
879.15 K	26.3 S/m
893.15 K	28.8 S/m
936.15 K	38.8 S/m
970.15 K	47 S/m
974.65 K	48.1 S/m
981.15 K	49.8 S/m
1005.1 K	55.4 S/m
1030.2 K	61.4 S/m
1062.2 K	69.2 S/m
1078.2 K	73.5 S/m and 74.2 S/m
1092.2 K	76.8 S/m
1100.2 K	79.2 S/m
1110.2 K	81.2 S/m
1114.2 K	82.8 S/m
1128.2 K	85.7 S/m
1131.2 K	87.1 S/m
1143.2 K	89 S/m
1144.7 K	90.3 S/m
1163.2 K	93.5 S/m
1167.2 K	95.9 S/m
1183.7 K	100 S/m
1195.7 K	103 S/m
1214.2 K	107 S/m
1225.2 K	110 S/m
1236.2 K	113 S/m
1245.7 K	115 S/m
1259.7 K	118 S/m
1279.7 K	122 S/m
1297.2 K	126 S/m
1306.2 K	127 S/m
1316.7 K	129 S/m
1324.2 K	131 S/m
1341.7 K	134 S/m
1350.2 K	135 S/m
1359.7 K	137 S/m
1376.7 K	139 S/m
1386.7 K	141 S/m
1399.2 K	142 S/m
1406.2 K	143 S/m
1414.2 K	144 S/m
1421.2 K	145 S/m
